The record followed here is patent publication US10598653B2, “Methods of blocking cancer stem cell growth” (Bionomics Inc., priority 2011, dated 2020).

Test [1] relates to CT1 primary colon tumor xenograft. The experiment in a line: CT1 primary colon tumor xenograft, combination with Irinotecan. The class given is in vivo, SCID beige female mice. Conditions: 10 mg/kg IP once per day for the first 5 days. The procedure: Single agent in vivo efficacy of murine antibodies 14F7.1, 18G7.1, 5B10.1, 14A8.1, 1B3.5 was evaluated in a primary colon tumor xenograft model system using CT1 primary xenograft cells. CT1 is a primary colorectal (CRC) in vivo xenograft tumor established from a fresh CRC patient tumor sample. The mutational status was determined by Ion Torrent deep sequencing to identify oncogene mutations. Approximately 5-15% of CT1 tumors express GPR49. SCID beige female mice were inoculated with CT1 tumor cells and monitored for tumor growth. Mice were randomized at day 0 into groups of 10 when mean tumor volume reached 175 mm^3. Chemotherapeutic Irinotecan was administered IP at 10 mg/kg once per day for the first 5 days. The antibodies were administered intraperitoneally (i.p.) at 15 mg/kg administered twice weekly for 4 weeks. Tumors were measured at the indicated intervals post-inoculation for total tumor volume.

The subject of test [2] is colon tumor cells re-implanted in secondary recipients. The experiment in a line: Secondary transplant tumor formation after GPR49 mAb+irinotecan. The class given is in vivo, mice. The note with it: 140 day follow-up. From the text:
Isolated tumor cells from control or GPR49 mAb+irinotecan treated tumors from the in vivo study outlined in Example 3 were harvested, pooled, dissociated and re-implanted in a limiting dilution secondary transplant assay to measure cancer stem cell frequency. For each treatment group, 8 mice were implanted with 10, 30, 100 cells. […]

The target of test [3] is T1, GPR49-Fc (Homo sapiens, UniProt O75473).
T1 construct: FLAG (C)
Briefly: Solution affinity surface plasmon resonance of RSPO-1 on GPR49-Fc. The note with it: initial binding rates, GPR49-Fc competition. The procedure: Methods: Binding of RSPO to GPR49 was analyzed using solution affinity surface plasmon resonance (Day E S, et al. Biochemistry. 2005 Feb. 15; 44(6):1919-31). The method utilizes conditions of so-called “mass-transport-limited” binding, in which the initial rate of ligand binding (protein binding to the sensor chip) is proportional to the concentration of ligand in solution (BIApplications Handbook (1994) Chapter 6: Concentration measurement, pp 6-1-6-10, Pharmacia Biosensor AB). Under these conditions, binding of the soluble analyte (protein flowing over chip surface) to the immobilized protein on the chip is fast compared to the diffusion of the analyte into the dextran matrix on the chip surface. Therefore, the diffusion properties of the analyte and the concentration of analyte in solution flowing over the chip surface determine the rate at which analyte binds to the chip. In this experiment, the concentration of free RSPO-1 in solution is determined by the initial rate of binding to a CM5 Biacore chip containing immobilized GPR49-Fc. Into these RSPO-1 solutions were titrated the competing GPR49-Fc.
(In general: SPR reads the build-up and loss of mass on a sensor chip optically.)

T1 sequence (O75473 with tags, fused parts or gaps): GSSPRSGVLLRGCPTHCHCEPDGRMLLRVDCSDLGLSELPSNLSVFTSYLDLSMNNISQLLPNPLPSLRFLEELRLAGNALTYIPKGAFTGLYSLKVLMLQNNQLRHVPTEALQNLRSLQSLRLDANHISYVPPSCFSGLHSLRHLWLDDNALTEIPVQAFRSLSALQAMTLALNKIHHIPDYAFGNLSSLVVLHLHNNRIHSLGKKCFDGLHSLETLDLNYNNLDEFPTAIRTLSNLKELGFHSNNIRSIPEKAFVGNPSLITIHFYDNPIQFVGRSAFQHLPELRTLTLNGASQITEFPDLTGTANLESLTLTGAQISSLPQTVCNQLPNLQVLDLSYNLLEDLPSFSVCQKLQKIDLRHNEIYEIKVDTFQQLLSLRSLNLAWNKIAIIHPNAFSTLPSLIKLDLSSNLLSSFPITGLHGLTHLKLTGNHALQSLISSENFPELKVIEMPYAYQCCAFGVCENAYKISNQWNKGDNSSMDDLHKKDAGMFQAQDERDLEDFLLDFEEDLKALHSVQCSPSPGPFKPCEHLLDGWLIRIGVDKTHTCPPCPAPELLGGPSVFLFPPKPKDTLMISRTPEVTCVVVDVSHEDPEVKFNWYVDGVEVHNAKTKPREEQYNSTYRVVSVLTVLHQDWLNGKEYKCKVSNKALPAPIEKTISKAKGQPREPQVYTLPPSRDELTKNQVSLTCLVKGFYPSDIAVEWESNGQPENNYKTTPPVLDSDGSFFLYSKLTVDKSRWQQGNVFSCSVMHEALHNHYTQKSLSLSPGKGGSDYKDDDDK

In the case of `CCc1c2c(nc3ccc(OC(=O)N4CCC(N5CCCCC5)CC4)cc13)-c1cc3c(c(=O)n1C2)COC(=O)[C@]3(O)CC` [Irinotecan], the “tumor inhibition, Irinotecan alone” value in test [1] was 45%. Further, the average tumor size in test [2] came to 1729 mm^3.

B1: R-spondin 1: R-spondin family Wnt-pathway modulator protein, purchased from R& D systems (protein, UniProt Q2MKA7 21-263, looked up)
R-spondin-1: SRGIKGKRQRRISAEGSQACAKGCELCSEVNGCLKCSPKLFILLERNDIRQVGVCLPSCPPGYFDARNPDMNKCIKCKIEHCEACFSHNFCTKCKEGLYLHKGRCYPACPEGSSAANGTMECSSPAQCEMSEWSPWGPCSKKQQLCGFRRGSEERTRRVLHAPVGDHAACSDTKETRRCTVRRVPCPEGQKRRKGGQGRRENANRNLARKESKEAGAGSRRRKGQQQQQQQGTVGPLTSAGPA
For B1, in test [3], the binding profile result is listed as “bi-phasic binding profile”.
